Data published in US10968222B2, “2-azabicyclo hexane JAK inhibitor compound” (THERAVANCE BIOPHARMA R&D IP, LLC, priority 2018, dated 2021).

How the values were obtained:
[1] = system: IL-6 induced pSTAT3 in rat retina/choroid; test: Pharmacodynamic assay: inhibition of IL6-induced pSTAT3 in rats; assay type: in vivo; settings: rat retina/choroid homogenates; 45 μg intravitreal dose; one hour after injection
Protocol: The ability of a single intravitreal administration of test compound to inhibit IL-6 induced pSTAT3 was measured in rat retina/choroid homogenates.
A solution formulation was prepared by dissolving compound 1 in 1% HPMC E5+15% HPβCD, pH7 to attain a target concentration of […]. Female Lewis rats were intravitreally (IVT) dosed (5 μL per eye) with either the vehicle, vehicle plus rat IL-6 (Peprotech; 0.5 μg), or a combination of IL-6 plus compound (0.5 μg IL-6 and 45 μg compound 1). Ocular tissues were dissected one hour after the IVT injection. The retina/choroid tissues were homogenized and pSTAT3 levels were measured using an AlphaLisa (PerkinElmer). The percent inhibition of IL-6-induced pSTAT3 was calculated in comparison to the vehicle and IL-6 groups.

[2] = system: IL-6 trans-signaling (IL6+sIL6Rα)-induced STAT3 phosphorylation in HRMECs; test: Inhibition of IL-6 trans-signaling stimulated p-STAT3 in primary human retinal microvascular endothelial cells; assay type: cell-based; settings: HRMEC, 500 pM IL-6, 5 nM sIL6Rα, three independent experiments, read-out: pIC50, inhibition of IL-6 trans-signaling stimulated p-STAT3 (converted)
Protocol: The cellular potency of the test compound toward inhibition of IL-6 trans-signaling (IL6+sIL6Rα)-induced STAT3 phosphorylation was measured in primary human retinal microvascular endothelial cells (HRMECs). IL-6 trans-signaling is mediated by IL-6 receptor beta (gp130), which is intracellularly coupled to JAK enzymes. Following gp130 engagement and dimerization, JAKs are activated and directly phosphorylate STAT3. Thus, this assay provides a measure of JAK cellular potency. HRMECs (Cell Systems, Kirkland Wash.) were plated in sterile, tissue culture treated, flat-bottom 96-well assay plates coated with Attachment Factor™ (Cell Systems, Kirkland Wash.) at a density of 1×10^4 cells per well. HRMEC cultures were grown for 3 days at 37° C., 95% humidity, 5% CO2 in culture media supplemented with 10% fetal bovine serum, Culture Boost™ growth factors, and BacOff® antibiotic (Cell Systems, Kirkland Wash.). […] To determine the inhibitory potency of the test compound, levels of p-STAT3 were measured using AlphaLISA® SureFire® Ultra™ p-STAT3 (Tyr705) assay kit (PerkinElmer) according to manufacturer's instructions. IC50 values were determined from inhibition curves of % p-STAT3 Alpha Signal vs test compound concentration (curve fitting conducted with GraphPad Prism 7.0). Data are expressed as pIC50 (negative log10(test compound concentration)).

ALK = target: T1, ALK (Homo sapiens, UniProt Q9UM73); test: Kinome screen, ALK; assay type: binding; settings: screened at 1 μM
T1 construct: made in house; host or cells: E. coli BL21-derived host (T7 phage) or HEK-293 cells
T1 sequence (Q9UM73 19-1620): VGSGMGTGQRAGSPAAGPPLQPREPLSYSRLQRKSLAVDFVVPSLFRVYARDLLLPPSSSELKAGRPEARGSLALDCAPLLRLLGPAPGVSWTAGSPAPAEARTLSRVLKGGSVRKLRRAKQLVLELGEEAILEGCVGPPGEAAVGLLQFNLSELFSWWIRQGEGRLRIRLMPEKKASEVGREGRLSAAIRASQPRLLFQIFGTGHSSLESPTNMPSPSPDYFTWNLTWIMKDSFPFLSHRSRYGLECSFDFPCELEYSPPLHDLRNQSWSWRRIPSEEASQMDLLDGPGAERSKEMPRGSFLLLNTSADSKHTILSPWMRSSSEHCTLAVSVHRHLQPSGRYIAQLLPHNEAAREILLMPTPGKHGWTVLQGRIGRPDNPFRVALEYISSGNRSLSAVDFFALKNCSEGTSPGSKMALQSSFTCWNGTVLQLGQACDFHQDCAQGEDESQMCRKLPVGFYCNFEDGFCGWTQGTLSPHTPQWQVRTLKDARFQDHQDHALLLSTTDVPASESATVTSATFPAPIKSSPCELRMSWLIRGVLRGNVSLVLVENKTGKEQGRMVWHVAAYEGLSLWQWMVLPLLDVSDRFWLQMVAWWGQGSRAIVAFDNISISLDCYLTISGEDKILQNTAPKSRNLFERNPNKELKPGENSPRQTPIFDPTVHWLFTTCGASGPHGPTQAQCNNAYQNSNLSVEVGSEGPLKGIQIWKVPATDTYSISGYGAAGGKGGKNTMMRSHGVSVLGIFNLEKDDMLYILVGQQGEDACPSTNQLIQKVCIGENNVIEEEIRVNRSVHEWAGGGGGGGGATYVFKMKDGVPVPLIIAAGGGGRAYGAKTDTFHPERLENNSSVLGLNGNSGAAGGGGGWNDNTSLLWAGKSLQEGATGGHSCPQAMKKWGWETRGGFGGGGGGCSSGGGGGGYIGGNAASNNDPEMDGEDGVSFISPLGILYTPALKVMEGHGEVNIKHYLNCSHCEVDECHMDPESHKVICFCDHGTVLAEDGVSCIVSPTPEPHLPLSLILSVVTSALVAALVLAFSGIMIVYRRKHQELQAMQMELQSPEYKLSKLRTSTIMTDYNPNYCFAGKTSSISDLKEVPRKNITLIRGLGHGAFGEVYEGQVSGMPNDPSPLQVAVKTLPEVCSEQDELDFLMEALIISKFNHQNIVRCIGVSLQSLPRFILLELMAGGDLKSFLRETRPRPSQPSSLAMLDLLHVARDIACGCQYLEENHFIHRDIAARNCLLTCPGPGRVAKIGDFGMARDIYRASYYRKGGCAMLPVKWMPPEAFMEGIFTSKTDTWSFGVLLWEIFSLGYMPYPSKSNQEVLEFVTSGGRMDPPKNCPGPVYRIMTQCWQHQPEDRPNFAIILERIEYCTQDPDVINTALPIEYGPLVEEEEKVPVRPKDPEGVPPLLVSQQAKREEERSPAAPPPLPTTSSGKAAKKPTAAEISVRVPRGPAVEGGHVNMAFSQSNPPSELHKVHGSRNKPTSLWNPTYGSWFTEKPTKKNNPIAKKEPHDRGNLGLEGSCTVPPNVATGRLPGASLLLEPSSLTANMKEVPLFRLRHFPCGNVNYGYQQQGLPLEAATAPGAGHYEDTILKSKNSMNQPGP
Protocol: (§1) Compounds 1 and C-1 were screened against other kinases to evaluate their selectivity profile.
(§2) Kinase-tagged T7 phage strains were grown in parallel in 24-well blocks in an E. coli host derived from the BL21 strain. E. coli were grown to log-phase and infected with T7 phage from a frozen stock (multiplicity of infection=0.4) and incubated with shaking at 32° C. until lysis (90-150 minutes). The lysates were centrifuged (6,000×g) and filtered (0.2 μm) to remove cell debris. The remaining kinases were produced in HEK-293 cells and subsequently tagged with DNA for qPCR detection.
(§3) Streptavidin-coated magnetic beads were treated with biotinylated small molecule ligands for 30 minutes at room temperature to generate affinity resins for kinase assays. The liganded beads were blocked with excess biotin and washed with blocking buffer (SeaBlock (Pierce), 1% BSA, 0.05% Tween 20, 1 mM DTT) to remove unbound ligand and to reduce non-specific phage binding. Binding reactions were assembled by combining kinases, liganded affinity beads, and test compounds in 1× binding buffer (20% SeaBlock, 0.17×PBS, 0.05% Tween 20, 6 mM DTT). Test compounds were prepared as 40× stocks in 100% DMSO and directly diluted into the assay. All reactions were performed in polypropylene 384-well plates in a final volume of 0.04 ml. […] The kinase concentration in the eluates was measured by qPCR. […]

CDK7 = target: T2, CDK7 (Homo sapiens, UniProt P50613); test: Kinome screen, CDK7; assay type: binding; settings: screened at 1 μM
T2 construct: made in house; host or cells: E. coli BL21-derived host (T7 phage) or HEK-293 cells
T2 sequence (P50613 whole entry): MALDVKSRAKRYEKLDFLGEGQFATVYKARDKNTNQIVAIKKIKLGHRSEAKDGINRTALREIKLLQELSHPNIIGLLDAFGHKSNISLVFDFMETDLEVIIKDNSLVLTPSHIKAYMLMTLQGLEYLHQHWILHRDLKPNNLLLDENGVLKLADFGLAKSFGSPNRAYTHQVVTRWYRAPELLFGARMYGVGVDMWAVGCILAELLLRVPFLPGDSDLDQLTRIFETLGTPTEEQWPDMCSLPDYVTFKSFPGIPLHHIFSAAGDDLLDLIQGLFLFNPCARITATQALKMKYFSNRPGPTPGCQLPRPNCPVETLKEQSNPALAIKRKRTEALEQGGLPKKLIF
Protocol: as §1, §2, §3

VEGFR2 = target: T3, VEGFR2 (Homo sapiens, UniProt P35968); test: Kinome screen, VEGFR2; assay type: binding; settings: screened at 1 μM
T3 construct: made in house; host or cells: E. coli BL21-derived host (T7 phage) or HEK-293 cells
T3 sequence (P35968 20-1356): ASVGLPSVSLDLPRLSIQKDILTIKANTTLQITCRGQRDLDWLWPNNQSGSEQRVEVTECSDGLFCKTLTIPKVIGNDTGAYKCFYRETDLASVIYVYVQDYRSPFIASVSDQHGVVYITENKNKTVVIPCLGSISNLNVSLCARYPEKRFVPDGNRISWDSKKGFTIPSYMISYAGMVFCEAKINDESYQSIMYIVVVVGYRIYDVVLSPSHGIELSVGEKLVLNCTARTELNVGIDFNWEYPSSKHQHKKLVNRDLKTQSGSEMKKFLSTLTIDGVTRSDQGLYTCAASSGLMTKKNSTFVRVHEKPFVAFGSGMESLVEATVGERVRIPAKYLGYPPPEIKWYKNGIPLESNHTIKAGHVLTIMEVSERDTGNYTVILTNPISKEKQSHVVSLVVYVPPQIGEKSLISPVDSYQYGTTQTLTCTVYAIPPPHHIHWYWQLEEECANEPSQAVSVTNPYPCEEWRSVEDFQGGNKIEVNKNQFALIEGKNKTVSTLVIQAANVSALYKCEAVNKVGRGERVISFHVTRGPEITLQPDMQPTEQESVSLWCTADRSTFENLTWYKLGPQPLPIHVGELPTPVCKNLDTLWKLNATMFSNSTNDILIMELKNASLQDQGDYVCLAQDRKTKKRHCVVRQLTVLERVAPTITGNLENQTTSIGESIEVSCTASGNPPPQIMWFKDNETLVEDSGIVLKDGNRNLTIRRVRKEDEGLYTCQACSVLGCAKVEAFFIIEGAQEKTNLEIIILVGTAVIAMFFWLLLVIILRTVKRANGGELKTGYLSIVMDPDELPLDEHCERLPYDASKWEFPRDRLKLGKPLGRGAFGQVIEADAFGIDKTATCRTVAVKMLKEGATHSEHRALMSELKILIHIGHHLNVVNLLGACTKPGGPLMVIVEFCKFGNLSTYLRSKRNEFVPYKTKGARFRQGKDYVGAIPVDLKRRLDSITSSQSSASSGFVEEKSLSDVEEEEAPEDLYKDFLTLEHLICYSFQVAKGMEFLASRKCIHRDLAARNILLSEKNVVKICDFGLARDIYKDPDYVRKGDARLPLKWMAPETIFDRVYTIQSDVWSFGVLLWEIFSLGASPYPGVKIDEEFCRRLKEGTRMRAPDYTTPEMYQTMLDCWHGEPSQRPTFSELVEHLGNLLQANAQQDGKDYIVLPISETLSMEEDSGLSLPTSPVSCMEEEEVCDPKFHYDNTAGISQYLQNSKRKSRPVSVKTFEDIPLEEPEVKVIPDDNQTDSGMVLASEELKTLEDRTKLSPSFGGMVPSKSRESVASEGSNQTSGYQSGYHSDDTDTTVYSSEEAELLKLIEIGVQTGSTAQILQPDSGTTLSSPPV
Protocol: as §1, §2, §3

SYK = target: T4, SYK (Homo sapiens, UniProt P43405); test: Kinome screen, SYK; assay type: binding; settings: screened at 1 μM
T4 construct: made in house; host or cells: E. coli BL21-derived host (T7 phage) or HEK-293 cells
Protocol: as §1, §2, §3

PLK4 = target: T5, PLK4 (Homo sapiens, UniProt O00444); test: Kinome screen, PLK4; assay type: binding; settings: screened at 1 μM
T5 construct: made in house; host or cells: E. coli BL21-derived host (T7 phage) or HEK-293 cells
T5 sequence (O00444 whole entry): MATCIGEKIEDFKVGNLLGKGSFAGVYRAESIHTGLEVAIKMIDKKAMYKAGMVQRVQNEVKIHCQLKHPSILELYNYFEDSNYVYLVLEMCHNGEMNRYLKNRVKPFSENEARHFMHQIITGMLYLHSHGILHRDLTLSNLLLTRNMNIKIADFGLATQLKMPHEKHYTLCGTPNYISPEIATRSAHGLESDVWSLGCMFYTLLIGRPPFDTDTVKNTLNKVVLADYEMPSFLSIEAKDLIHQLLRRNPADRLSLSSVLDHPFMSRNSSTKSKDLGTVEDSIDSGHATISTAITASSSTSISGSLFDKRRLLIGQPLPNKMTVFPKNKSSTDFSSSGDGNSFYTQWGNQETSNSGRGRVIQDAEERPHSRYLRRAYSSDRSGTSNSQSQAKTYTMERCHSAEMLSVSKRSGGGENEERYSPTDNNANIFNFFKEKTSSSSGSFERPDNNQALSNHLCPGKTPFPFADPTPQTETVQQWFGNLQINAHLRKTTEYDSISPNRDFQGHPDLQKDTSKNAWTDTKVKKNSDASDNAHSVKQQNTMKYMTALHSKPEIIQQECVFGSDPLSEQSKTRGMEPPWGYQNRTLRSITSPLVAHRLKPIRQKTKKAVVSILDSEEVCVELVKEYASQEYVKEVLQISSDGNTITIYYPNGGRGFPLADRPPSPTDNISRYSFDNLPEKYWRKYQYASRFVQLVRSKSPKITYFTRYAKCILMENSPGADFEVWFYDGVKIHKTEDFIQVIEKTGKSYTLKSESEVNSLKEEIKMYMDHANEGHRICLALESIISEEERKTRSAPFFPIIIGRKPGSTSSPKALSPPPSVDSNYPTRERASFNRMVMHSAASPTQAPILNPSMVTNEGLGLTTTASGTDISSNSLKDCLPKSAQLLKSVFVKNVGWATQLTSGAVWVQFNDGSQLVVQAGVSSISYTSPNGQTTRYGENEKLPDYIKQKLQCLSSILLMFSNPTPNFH
Protocol: as §1, §2, §3

GSK3B = target: T6, GSK3B (Homo sapiens, UniProt P49841); test: Kinome screen, GSK3B; assay type: binding; settings: screened at 1 μM
T6 construct: made in house; host or cells: E. coli BL21-derived host (T7 phage) or HEK-293 cells
T6 sequence (P49841 whole entry): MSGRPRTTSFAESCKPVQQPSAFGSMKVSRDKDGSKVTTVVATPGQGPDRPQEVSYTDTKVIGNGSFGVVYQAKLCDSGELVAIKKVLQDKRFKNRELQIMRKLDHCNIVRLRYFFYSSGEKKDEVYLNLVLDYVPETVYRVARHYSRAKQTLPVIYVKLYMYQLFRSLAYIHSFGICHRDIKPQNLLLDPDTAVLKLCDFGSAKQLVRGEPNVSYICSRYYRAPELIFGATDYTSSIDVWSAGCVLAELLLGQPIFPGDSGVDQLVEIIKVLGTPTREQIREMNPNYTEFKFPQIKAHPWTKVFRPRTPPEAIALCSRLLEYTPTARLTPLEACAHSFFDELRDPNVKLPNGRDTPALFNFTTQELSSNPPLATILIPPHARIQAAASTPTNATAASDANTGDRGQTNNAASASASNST
Protocol: as §1, §2, §3

CSNK1D = target: T7, CSNK1D (Homo sapiens, UniProt P48730); test: Kinome screen, CSNK1D; assay type: binding; settings: screened at 1 μM
T7 construct: made in house; host or cells: E. coli BL21-derived host (T7 phage) or HEK-293 cells
T7 sequence (P48730 whole entry): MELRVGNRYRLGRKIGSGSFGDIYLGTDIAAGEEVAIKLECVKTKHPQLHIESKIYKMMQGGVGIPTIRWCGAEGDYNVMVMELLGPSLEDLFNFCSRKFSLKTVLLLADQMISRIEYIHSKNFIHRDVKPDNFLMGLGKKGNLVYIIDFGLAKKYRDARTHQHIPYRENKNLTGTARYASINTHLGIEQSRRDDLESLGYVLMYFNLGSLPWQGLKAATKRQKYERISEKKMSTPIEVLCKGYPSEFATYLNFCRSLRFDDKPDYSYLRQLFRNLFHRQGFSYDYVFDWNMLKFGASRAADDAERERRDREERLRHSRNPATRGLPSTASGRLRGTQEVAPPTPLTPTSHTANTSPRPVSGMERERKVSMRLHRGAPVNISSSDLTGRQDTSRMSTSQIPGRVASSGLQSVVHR
Protocol: as §1, §2, §3

In the case of `CCc1cc(O)c(F)cc1-c1cc(F)c2c(-c3nc4c([nH]3)CCN(C(=O)[C@]35C[C@H]3CCN5)C4)n[nH]c2c1` [Compound 1, (1S,5R)-2-azabicyclo[3.1.0]hexan-1-yl(2-(6-(2-ethyl-5-fluoro-4-hydroxyphenyl)-4-fluoro-1H-indazol-3-yl)-6,7-dihydro-3H-imidazo[4,5-c]pyridin-5(4H)-yl)methanone], the “inhibition of IL-6-induced pSTAT3” value [1] is reported as 84%, the IC50 [2] is reported as 501 nM and the inhibition at 1 µM (ALK) is reported as 79%. It also gave an inhibition at 1 µM (CDK7) of 82%, an inhibition at 1 µM (VEGFR2) of 47% and an inhibition at 1 µM (SYK) of 44%. It also gave an inhibition at 1 µM (PLK4) of 39%, an inhibition at 1 µM (GSK3B) of 32% and an inhibition at 1 µM (CSNK1D) of 25%.
